Test results from US20070128217A1 (priority 2003, published 2007).

Legend:
[1] = test system: antibodies in sera from SARS patients (sera 1a, 1b, 2, 6, 37, 62, London, SARS-yellow, SARS-green); assay type: binding, human; set-up: Binding of serum 6 to linear peptides of protein X1 of SARS-CoV Urbani / Binding of serum 37 to linear peptides of protein X1 of SARS-CoV Urbani / Binding of serum 6 to looped/cyclic peptide (PEPSCAN-ELISA) / Binding of serum 37 to looped/cyclic peptide (PEPSCAN-ELISA) / Binding of serum 37 to looped/cyclic peptides of protein X1 of SARS-CoV Urbani / Binding of serum 6 to linear peptides of protein X2 / Binding of serum 37 to linear peptides of protein X2 / Binding of serum 37 to looped/cyclic peptides of protein X2 of SARS-CoV Urbani / Binding of serum 6 to linear peptides of protein M of SARS-CoV Urbani / Binding of serum 37 to linear peptides of protein M of SARS-CoV Urbani / Binding of serum 6 to looped/cyclic peptides of protein M of SARS-CoV Urbani / Binding of serum 37 to looped/cyclic peptides of protein M of SARS-CoV Urbani / Binding of serum 6 to linear peptides of protein X3 of SARS-CoV Urbani / Binding of serum 37 to linear peptides of protein X3 of SARS-CoV Urbani / Binding of serum 37 to looped/cyclic peptides of protein X3 of SARS-CoV Urbani / Binding of serum 6 to linear peptides of protein X4 of SARS-CoV Urbani / Binding of serum 37 to linear peptides of protein X4 of SARS-CoV Urbani / Binding of serum 37 to looped/cyclic peptides of protein X4 of SARS-CoV Urbani / Binding of serum 6 to linear peptides of protein X5 of SARS-CoV Urbani / Binding of serum 37 to linear peptides of protein X5 of SARS-CoV Urbani / Binding of serum 37 to looped/cyclic peptides of protein X5 of SARS-CoV Urbani / Binding of serum 6 to linear peptides of protein N of SARS-CoV Urbani / Binding of serum 37 to linear peptides of protein N of SARS-CoV Urbani / Binding of serum 6 to linear peptide (PEPSCAN-ELISA) / Binding of serum 1a to looped/cyclic peptides of protein N of SARS-CoV Urbani / Binding of serum 1b to looped/cyclic peptides of protein N of SARS-CoV Urbani / Binding of serum 2 to looped/cyclic peptides of protein N of SARS-CoV Urbani / Binding of serum 6 to looped/cyclic peptides of protein N of SARS-CoV Urbani / Binding of serum 37 to looped/cyclic peptides of protein N of SARS-CoV Urbani / Binding of serum 62 to looped/cyclic peptides of protein N of SARS-CoV Urbani / Binding of serum London to looped/cyclic peptides of protein N of SARS-CoV Urbani / Binding of serum SARS-green to looped/cyclic peptides of protein N of SARS-CoV Urbani: unit not given here
[2] = test system: rabbit serum obtained by immunizing a rabbit with the SARS-CoV strain Frankfurt 1; assay type: binding; set-up: Binding of a rabbit serum to linear peptides / Binding of a rabbit serum to looped peptides / Rabbit serum linear peptides / Rabbit serum looped peptides / Binding of a rabbit serum to linear peptides of protein N of SARS-CoV Urbani (Rabbit serum linear peptides) / Binding of a rabbit serum to looped/cyclic peptides of protein N of SARS-CoV Urbani (Rabbit serum looped peptides): unit not given here
[3] = test system: control sera (pooled serum of ten healthy LUMC hospital workers; commercial negative donor pooled serum from the Dutch bloodbank); assay type: binding, human; set-up: Binding of Control serum LUMC to linear peptides / Binding of Control serum Blood-bank to linear peptides / Binding of Control serum LUMC to looped peptides / Binding of Control Serum Blood-Bank to Looped peptides / Binding of Control serum LUMC to linear peptides of the protein M of SARS-CoV Urbani / Binding of Control serum Blood-bank to linear peptides of the protein M of SARS-CoV Urbani / Binding of Control serum LUMC to looped peptides of the protein M of SARS-CoV Urbani / Binding of Control Serum Blood-Bank to Looped peptides of the protein M of SARS-CoV Urbani: unit not given here

ACFVLAAVYRINWVT was tested. Which “Binding of serum 1a to linear peptides of protein M of SARS-CoV Urbani” value [1] did it give?
Its value is 0.7.

And the “Binding of serum 1a to looped/cyclic peptides of protein M of SARS-CoV Urbani” value [1]?
Its value is 0.7.

What about the “Binding of serum 1b to linear peptides of protein M of SARS-CoV Urbani” value [1] of the same sequence?
Its value is 0.6.

And the “Binding of serum 1b to looped/cyclic peptides of protein M of SARS-CoV Urbani” value [1]?
Its value is 0.7.

And the “Binding of serum 2 to linear peptides of protein M of SARS-CoV Urbani” value [1]?
The value was 0.5.

And the “Binding of serum 2 to looped/cyclic peptides of protein M of SARS-CoV Urbani” value [1]?
The value was 0.5.

And the “Binding of serum 6 to linear peptides of protein M of SARS-CoV Urbani” value [1]?
Its value is 0.3.

And the “Binding of serum 6 to looped/cyclic peptides of protein M of SARS-CoV Urbani” value [1]?
Its value is 1.0.

And the “Binding of serum 37 to linear peptides of protein M of SARS-CoV Urbani” value [1]?
Its value is 0.8.

And the “Binding of serum 37 to looped/cyclic peptides of protein M of SARS-CoV Urbani” value [1]?
The value was 0.7.

What about the “Binding of serum 62 to linear peptides of protein M of SARS-CoV Urbani” value [1] of the same sequence?
The value was 0.9.

What about the “Binding of serum 62 to looped/cyclic peptides of protein M of SARS-CoV Urbani” value [1] of the same sequence?
Its value is 0.6.

What about the “Binding of serum London to linear peptides of protein M of SARS-CoV Urbani” value [1] of the same sequence?
The value was 0.3.

What about the “Binding of serum London to looped/cyclic peptides of protein M of SARS-CoV Urbani” value [1] of the same sequence?
Its value is 0.3.

What about the “Binding of serum SARS-green to linear peptides of protein M of SARS-CoV Urbani” value [1] of the same sequence?
Its value is 0.3.

And the “Binding of serum SARS-green to looped/cyclic peptides of protein M of SARS-CoV Urbani” value [1]?
The value was 0.3.

What about the “Binding of serum SARS-yellow to linear peptides of protein M of SARS-CoV Urbani” value [1] of the same sequence?
Its value is 0.0.

What about the “Binding of serum SARS-yellow to looped/cyclic peptides of protein M of SARS-CoV Urbani” value [1] of the same sequence?
The value was 0.5.

And the “Rabbit serum linear peptides” value [2]?
The value was 0.4.

What about the “Rabbit serum looped peptides” value [2] of the same sequence?
The value was 0.3.

And the “Binding of Control Serum Blood-Bank to Looped peptides of the protein M of SARS-CoV Urbani” value [3]?
The value was 0.7.

What about the “Binding of Control serum Blood-bank to linear peptides of the protein M of SARS-CoV Urbani” value [3] of the same sequence?
The value was 0.7.

And the “Binding of Control serum LUMC to linear peptides of the protein M of SARS-CoV Urbani” value [3]?
The value was 0.3.

What about the “Binding of Control serum LUMC to looped peptides of the protein M of SARS-CoV Urbani” value [3] of the same sequence?
The value was 0.7.

ACLCKHKKVSTNLCT was tested. Which “Binding of serum 1a to looped/cyclic peptides of protein X2 of SARS-CoV Urbani” value [1] did it give?
The value was 0.3.

And the “Binding of serum 1b to looped/cyclic peptides of protein X2 of SARS-CoV Urbani” value [1]?
The value was 0.3.

And the “Binding of serum 2 to looped/cyclic peptides of protein X2 of SARS-CoV Urbani” value [1]?
The value was 0.2.

What about the “Binding of serum 6 to looped/cyclic peptides of protein X2 of SARS-CoV Urbani” value [1] of the same sequence?
The value was 0.2.

What about the “Binding of serum 37 to looped/cyclic peptides of protein X2 of SARS-CoV Urbani” value [1] of the same sequence?
The value was 0.3.

What about the “Binding of serum 62 to looped/cyclic peptides of protein X2 of SARS-CoV Urbani” value [1] of the same sequence?
The value was 0.4.

What about the “Binding of serum London to looped/cyclic peptides of protein X2 of SARS-CoV Urbani” value [1] of the same sequence?
The value was 0.2.

And the “Binding of serum SARS-green to looped/cyclic peptides of protein X2 of SARS-CoV Urbani” value [1]?
Its value is 0.3.

What about the “Binding of serum SARS-yellow to looped/cyclic peptides of protein X2 of SARS-CoV Urbani” value [1] of the same sequence?
The value was 0.3.

What about the “Recognition of the peptide by sera of SARS-CoV infected individuals, and form (linear, looped/cyclic) in which it is recognized” value [1] of the same sequence?
Its value is “recognized in linear form”.

And the “Binding of a rabbit serum to linear peptides” value [2]?
The value was 0.3.

What about the “Binding of a rabbit serum to looped peptides” value [2] of the same sequence?
The value was 0.3.

And the “Binding of Control Serum Blood-Bank to Looped peptides” value [3]?
Its value is 0.2.

And the “Binding of Control serum Blood-bank to linear peptides” value [3]?
Its value is 0.9.

What about the “Binding of Control serum LUMC to linear peptides” value [3] of the same sequence?
Its value is 0.8.

And the “Binding of Control serum LUMC to looped peptides” value [3]?
Its value is 0.3.

AFLAVFQSATKIIAL was tested. Which “Binding of serum 1a to linear peptides of protein X1 of SARS-CoV Urbani” value [1] did it give?
Its value is 0.7.

What about the “Binding of serum 1a to looped/cyclic peptide (PEPSCAN-ELISA)” value [1] of the same sequence?
Its value is 0.5.

What about the “Binding of serum 1b to linear peptides of protein X1 of SARS-CoV Urbani” value [1] of the same sequence?
The value was 0.4.

And the “Binding of serum 1b to looped/cyclic peptide (PEPSCAN-ELISA)” value [1]?
The value was 0.4.

What about the “Binding of serum 2 to linear peptides of protein X1 of SARS-CoV Urbani” value [1] of the same sequence?
Its value is 0.5.

And the “Binding of serum 2 to looped/cyclic peptide (PEPSCAN-ELISA)” value [1]?
The value was 0.5.

What about the “Binding of serum 6 to linear peptides of protein X1 of SARS-CoV Urbani” value [1] of the same sequence?
Its value is 0.4.

And the “Binding of serum 6 to looped/cyclic peptide (PEPSCAN-ELISA)” value [1]?
Its value is 1.3.

What about the “Binding of serum 37 to linear peptides of protein X1 of SARS-CoV Urbani” value [1] of the same sequence?
Its value is 0.6.

And the “Binding of serum 37 to looped/cyclic peptide (PEPSCAN-ELISA)” value [1]?
The value was 0.6.

And the “Binding of serum 62 to linear peptides of protein X1 of SARS-CoV Urbani” value [1]?
Its value is 0.5.

And the “Binding of serum 62 to looped/cyclic peptide (PEPSCAN-ELISA)” value [1]?
Its value is 0.6.

What about the “Binding of serum London to linear peptides of protein X1 of SARS-CoV Urbani” value [1] of the same sequence?
The value was 0.2.

And the “Binding of serum London to looped/cyclic peptide (PEPSCAN-ELISA)” value [1]?
The value was 1.6.

What about the “Binding of serum SARS-green to linear peptides of protein X1 of SARS-CoV Urbani” value [1] of the same sequence?
The value was 0.3.

What about the “Binding of serum SARS-green to looped/cyclic peptide (PEPSCAN-ELISA)” value [1] of the same sequence?
The value was 0.3.

What about the “Binding of serum SARS-yellow to linear peptides of protein X1 of SARS-CoV Urbani” value [1] of the same sequence?
The value was 0.3.

And the “Binding of serum SARS-yellow to looped/cyclic peptide (PEPSCAN-ELISA)” value [1]?
The value was 0.6.

What about the “Binding of a rabbit serum to linear peptides” value [2] of the same sequence?
Its value is 0.2.

And the “Binding of a rabbit serum to looped peptides” value [2]?
The value was 0.8.

What about the “Binding of Control Serum Blood-Bank to Looped peptides” value [3] of the same sequence?
The value was 0.7.

And the “Binding of Control serum Blood-bank to linear peptides” value [3]?
Its value is 0.5.

What about the “Binding of Control serum LUMC to linear peptides” value [3] of the same sequence?
Its value is 0.5.

And the “Binding of Control serum LUMC to looped peptides” value [3]?
Its value is 0.6.
